Laboratory results taken from PubChem BioAssay AID449762 (Southern Research Specialized Biocontainment Screening …, 2010).
pIC50: −log10 of the molar value. Inconclusive results are not listed.

Test system: M. tuberculosis H37Rv growth inhibition, 7H9 media
Test: M. tuberculosis growth inhibition, HTS (AID 449762);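 also: bacterial growth assessed after seven days of incubation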
Conditions: for IC90: measured here: IC90 growth inhibition

SMILES | pIC50 | IC90
CCC(=O)c1ccc(OCC(=O)OCC(=O)c2cc(C)n(C3CC3)c2C)cc1 | 5.62 | 74.8 µM
O=C(COc1cc(O)c2c(=O)c3ccccc3oc2c1)OCc1ccccc1 | – | > 100 µM
Cc1ccc(-n2c(C)cc(/C=N/NC(N)=S)c2C)cc1 | 4.89 | 24.6 µM
Cc1nn2c(NCc3ccccn3)cc(C(C)C)nc2c1-c1ccccc1 | 5.63 | 3.29 µM
C=C1C(=O)O[C@@H]2C[C@@H](C)[C@@H]3C4OC4C(=O)[C@@]3(C)[C@@H](O)[C@H]12 (some centres not stated) | 5.44 | 9.39 µM
Nn1c(SCc2ccccc2)nc2ccccc21 | 4.55 | > 100 µM
N#Cc1nccnc1S(=O)(=O)c1cccs1 | 4.39 | 61.1 µM
N=c1n(Cc2ccc(Cl)cc2)c2ccccc2n1CC(O)COc1ccccc1 (configuration not stated) | 4.76 | 25.5 µM
Oc1ccccc1Nc1nc(NCc2ccccc2)c2ccccc2n1 | 4.79 | 21.1 µM
Cc1cccc(-c2ncc(CN3CCC(CO)(CCCc4ccccc4)CC3)cn2)c1 | 4.36 | 73.5 µM
CCOc1ccc(N(C(=O)/C=C/C(=O)Nc2cc(C)on2)C(C(=O)NC2CCCC2)c2ccccc2C)cc1 (configuration not stated) | 4.18 | > 100 µM
CCCCCCCCCCOC(=O)Cn1c(COc2ccc(Cl)cc2)[n+](C)c2ccccc21 | 4.93 | 13.3 µM
CCOC(=O)C(/C=C(\C#N)C(=O)OCC)=C(/N)N1CCN(c2ccc(Cl)cc2)CC1 | 4.73 | > 100 µM
CC(=O)N1CCN(c2ccc(OC[C@H]3CO[C@](Cn4ccnc4)(c4ccc(Cl)cc4Cl)O3)cc2)CC1 | 4.76 | 25.2 µM
Cc1ccccc1NC(=O)Cc1nc(COC(=O)/C=C/c2ccccc2)cs1 | 4.39 | 63 µM
COc1ccccc1C1CCN(Cc2ccc3ccccc3c2)CC1 | 4.80 | 21.8 µM
Cc1oc(-c2cccc(Cl)c2)nc1CN1CCC(C(=O)N2CCN(c3ccccc3F)CC2)CC1 | 4.68 | 26.3 µM

SMILES | pIC50 | IC90
CCCCSCCCNC(=O)c1cn(CC)c2ccc(S(=O)(=O)N3CCOCC3)cc2c1=O | 4.63 | 44.9 µM
Cc1ccc(C(=O)n2c(N)nc3ccccc32)cc1 | 4.36 | > 100 µM
O=C(N/N=C/c1cccc2cccnc12)[C@H]1C[C@@H]1c1ccccc1 | 4.73 | 34.7 µM
Cc1c(OCc2ccccc2)c(=O)ccn1Cc1ccc(Cl)cc1 | 4.40 | 60.1 µM
CCOc1ccc2nc(NC(=O)C34CC5CC(CC(NC(C)=O)(C5)C3)C4)sc2c1 | 4.75 | 28.4 µM
Cc1ccc(/C=C(\NC(=O)c2ccc(C)cc2)c2nc(=S)[nH][nH]2)cc1 | 4.40 | 48.9 µM
O=C(NC1CCCCC1)C(c1ccc2ncccc2c1)N(Cc1ccco1)C(=O)c1ccc2c(c1)OCCO2 (configuration not stated) | 4.03 | > 100 µM
CC(OC(=O)COc1ccc(Nc2ccccc2)cc1)C(=O)N(C)c1ccccc1 (configuration not stated) | > 6.70 | 4.17 µM
FC(F)(Cl)c1nnc2ccc(Cl)nn12 | 6.59 | 0.86 µM
CCCSc1nnc(Sc2nnnn2-c2ccccc2)s1 | 4.99 | 33 µM
O=C1C=C(c2ccc3[nH]ccc3c2)C[C@@H](c2ccc(Cl)cc2)C1 | 4.12 | > 100 µM
CC1CCN(c2nc(Cl)nc(Nc3ccc([N+](=O)[O-])cc3)n2)CC1 | 4.10 | > 100 µM
COc1ccc(C(=O)/C=C/c2cc(OC)c(O)c(OC)c2)c(F)c1 | 4.46 | 67 µM
CN1CCN(c2c(F)cc3c(=O)c(C(=O)O)cn4c3c2OCN4C)CC1 | 6.14 | 0.8 µM
O=C(Nc1cccc(Cl)c1)N1CCN(C/C=C/c2ccccc2)CC1 | 4.43 | 52.7 µM
COc1ccc([C@H]2CC(=O)C=C(c3ccc4c5c(cccc35)CC4)C2)cc1 | 4.96 | 23 µM
COc1ccc(C2=CC(c3c(C)nn(-c4ccccc4)c3Cl)n3nnnc3N2)cc1OC (configuration not stated) | 4.39 | 78.9 µM
